Test results: PubChem BioAssay (NCI)
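Protocol summary: plate cells (96-well), add compound at 5 concentrations, incubate 48 h, interpolate endpoints linearly. TGI marks complete inhibition of growth.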

Experiments:
Test in all cases: DTP human tumour cell line panel, 48 h
[1] = test system: NCI-H460 lung
[2] = test system: OVCAR-3 ovarian
[3] = test system: NCI-H226 lung
[4] = test system: SK-MEL-5 melanoma
[5] = test system: LOX IMVI melanoma
[6] = test system: HS 578T breast
[7] = test system: UACC-62 melanoma
[8] = test system: HOP-92 NSCLC
[9] = test system: HL-60(TB) leukemia
[10] = test system: CAKI-1 renal
[11] = test system: SR leukemia
[12] = test system: MALME-3M melanoma
[13] = test system: COLO 205 colon
[14] = test system: UO-31 renal
[15] = test system: SNB-75 CNS
[16] = test system: EKVX NSCLC
[17] = test system: A498 renal
[18] = test system: SF-268 CNS
[19] = test system: SK-MEL-2 melanoma
[20] = test system: NCI/ADR-RES ovarian
[21] = test system: MOLT-4 leukemia
[22] = test system: DU-145 prostate
[23] = test system: OVCAR-4 ovarian
[24] = test system: NCI-H522 lung
[25] = test system: OVCAR-5 ovarian
[26] = test system: HCT-116 colon
[27] = test system: RXF 393 renal
[28] = test system: SNB-19 CNS
[29] = test system: UACC-257 melanoma
[30] = test system: CCRF-CEM leukemia
[31] = test system: IGROV1 ovarian
[32] = test system: K-562 leukemia
[33] = test system: MDA-N
[34] = test system: SK-OV-3 ovarian
[35] = test system: ACHN renal
[36] = test system: SN12C renal
[37] = test system: HOP-62 NSCLC
[38] = test system: BT-549 breast
[39] = test system: T-47D breast
[40] = test system: MDA-MB-231 breast
[41] = test system: MCF7 breast
[42] = test system: KM12 colon
[43] = test system: SW-620 colon
[44] = test system: HT29 colon
[45] = test system: OVCAR-8 ovarian
[46] = test system: HCC-2998 colon
[47] = test system: U251 CNS
[48] = test system: MDA-MB-435
[49] = test system: M14 melanoma
[50] = test system: SF-295 CNS
[51] = test system: PC-3 prostate
[52] = test system: NCI-H23 lung
[53] = test system: HCT-15 colon
[54] = test system: SF-539 CNS
[55] = test system: SK-MEL-28 melanoma
[56] = test system: TK-10 renal
[57] = test system: A549 NSCLC
[58] = test system: RPMI-8226 leukemia

CC1=C(SCCO)C(=O)c2ccccc2C1=O
TGI [1]: 26.8 µM
TGI [2]: 15.3 µM
TGI [3]: 29.1 µM
TGI [4]: 26.6 µM
TGI [5]: 24.6 µM
TGI [6]: 40.4 µM
TGI [7]: 31.7 µM
TGI [8]: 3.72 µM
TGI [9]: > 100 µM
TGI [10]: 28.8 µM
TGI [11]: > 100 µM
TGI [12]: 27.3 µM
TGI [13]: 24.1 µM
TGI [14]: 20.3 µM
TGI [15]: 30.1 µM
TGI [16]: 27.5 µM
TGI [17]: 30.6 µM
TGI [18]: 29.9 µM
TGI [19]: 24.5 µM
TGI [20]: 31.9 µM
TGI [21]: > 100 µM
TGI [22]: 29.6 µM
TGI [23]: 15.3 µM
TGI [24]: 14.6 µM
TGI [25]: 33.6 µM
TGI [26]: 17.4 µM
TGI [27]: 26.3 µM
TGI [28]: 79.6 µM
TGI [29]: 25.8 µM
TGI [30]: > 100 µM
TGI [31]: 27.3 µM
TGI [32]: > 100 µM
TGI [33]: 15.6 µM
TGI [34]: 29.6 µM
TGI [35]: 13 µM
TGI [36]: 29.7 µM
TGI [37]: 29.4 µM
TGI [38]: 31.7 µM
TGI [39]: 20.5 µM
TGI [40]: 27.4 µM
TGI [41]: 12.6 µM
TGI [42]: 26.8 µM
TGI [43]: 33.1 µM
TGI [44]: 38.7 µM
TGI [45]: 28.6 µM
TGI [46]: 30.4 µM
TGI [47]: 26.1 µM
TGI [48]: 23.9 µM
TGI [49]: 27.6 µM
TGI [50]: 32.8 µM
TGI [51]: 25.1 µM
TGI [52]: 30.4 µM
TGI [53]: 25.3 µM
TGI [54]: 24.9 µM
TGI [55]: 25.9 µM
TGI [56]: 30.4 µM
TGI [57]: 32.8 µM

COc1nc2ccc(CNc3ccc(C(=O)NC(CCC(=O)O)C(=O)O)cc3)cc2nc1OC (stereo unspecified)
TGI [1]: > 100 µM
TGI [2]: > 100 µM
TGI [3]: > 100 µM
TGI [4]: > 100 µM
TGI [5]: > 100 µM
TGI [6]: > 100 µM
TGI [7]: > 100 µM
TGI [9]: > 100 µM
TGI [11]: > 100 µM
TGI [58]: > 100 µM
TGI [12]: > 100 µM
TGI [13]: > 100 µM
TGI [14]: > 100 µM
TGI [15]: > 100 µM
TGI [16]: > 100 µM
TGI [17]: > 100 µM
TGI [18]: > 100 µM
TGI [19]: > 100 µM
TGI [20]: > 100 µM
TGI [21]: > 100 µM
TGI [22]: > 100 µM
TGI [23]: > 100 µM
TGI [24]: > 100 µM
TGI [25]: > 100 µM
TGI [27]: > 100 µM
TGI [28]: > 100 µM
TGI [29]: > 100 µM
TGI [30]: > 100 µM
TGI [31]: > 100 µM
TGI [32]: > 100 µM
TGI [33]: > 100 µM
TGI [34]: > 100 µM
TGI [35]: > 100 µM
TGI [36]: > 100 µM
TGI [37]: > 100 µM
TGI [38]: > 100 µM
TGI [39]: > 100 µM
TGI [40]: > 100 µM
TGI [41]: > 100 µM
TGI [42]: > 100 µM
TGI [43]: > 100 µM
TGI [44]: > 100 µM
TGI [45]: > 100 µM
TGI [46]: > 100 µM
TGI [47]: > 100 µM
TGI [48]: > 100 µM
TGI [49]: > 100 µM
TGI [50]: > 100 µM
TGI [51]: > 100 µM
TGI [52]: > 100 µM
TGI [53]: > 100 µM
TGI [55]: > 100 µM
TGI [56]: > 100 µM
TGI [57]: > 100 µM
